In ChEMBL document CHEMBL5113371, “Lipolytic enzymes inhibitors: A new way for antibacterial drugs discovery” (Eur J Med Chem, 2021):
Converted amounts (≈) assume the structure as drawn.

Columns and labels:
[1] = tested on: Mycobacterium tuberculosis H37Rv; experiment: Antibacterial activity against Mycobacterium tuberculosis H37Rv expressing GFP infected in mouse Raw264.7 cells incubated for 5 days by SYTO 60 staining method; assay type: functional
[2] = tested on: Mycobacterium tuberculosis H37Rv; experiment: Antibacterial activity against Mycobacterium tuberculosis H37Rv expressing GFP incubated for 7 days; assay type: functional, Mycobacterium tuberculosis variant bovis
[3] = tested on: Mycobacterium tuberculosis variant bovis; experiment: Antibacterial activity against VLDL-treated Mycobacterium bovis BCG assessed as level of intrabacterial lipid inclusions profile relative to control; assay type: functional
[4] = Mycobacterium tuberculosis variant bovis, time 5.0 day

SMILES | MIC50 ([2]; 168 h, time 7 day) [µM] | MIC50 ([1]; 120 h, time 5 day) [µM] | other results
CCCCCCCCCCCCCCCCO[P@]1(=O)OC[C@@H]2COC(=O)C2=C(C)O1 |  |  | MIC50 [1, 4]: NE
NNC(=O)c1ccncc1 [ISONIAZID] | 1.2 (≈ 0.165 µg/mL) | 1.2 (≈ 0.165 µg/mL) | 
O=c1oc(OCCOCc2ccccc2)nn1-c1ccc(Oc2ccccc2)cc1 | > 50 | 3.5 (≈ 1.42 µg/mL) | 
COc1nn(-c2cccc(Oc3ccccc3)c2)c(=O)o1 |  |  | Activity [3]: 90%
CC(C)COc1nn(-c2ccc(Oc3ccccc3)cc2)c(=O)o1 | 32 (≈ 10.4 µg/mL) | 8.5 (≈ 2.77 µg/mL) | 
CCCCCCOc1nn(-c2ccc(Oc3ccccc3)cc2)c(=O)o1 | > 50 | 9.5 (≈ 3.37 µg/mL) | 
CCCCCCCCCCCC[C@@H]1CC[P@@](=O)(OC)OC(C)=C1C(=O)OC | 40.4 (≈ 16.3 µg/mL) | 4 (≈ 1.61 µg/mL) | 
CCCCC[C@H]1CC[P@@](=O)(OC)OC(C)=C1C(=O)OC |  |  | MIC50 ([2]; Mycobacterium tuberculosis variant bovis, time 7.0 day): NE
O=c1oc(OCCOCc2ccccc2)nn1-c1ccccc1 | 30.8 (≈ 9.62 µg/mL) |  | MIC50 [1, 4]: NE
CCCCCCCCCC[C@H]1CC[P@@](=O)(OC)OC(C)=C1C(=O)OC | 16.6 (≈ 6.22 µg/mL) | 3.1 (≈ 1.16 µg/mL) | 
CCCCCCCCCC[C@@H]1CC[P@@](=O)(OC)OC(C)=C1C(=O)OC |  | 4.5 (≈ 1.69 µg/mL) | 
CCCCCCOc1nn(-c2ccccc2)c(=O)o1 | 44.6 (≈ 11.7 µg/mL) |  | MIC50 [1, 4]: NE
CCCCCCCCCCCCCCCCO[P@]1(=O)OC[C@H]2COC(=O)C2=C(C)O1 | 1.7 (≈ 0.756 µg/mL) |  | MIC50 [1, 4]: NE
CCCCCCCCCCCCCCCCOP1(=O)OCCC(C(=O)OC)=C(C)O1 (centres undefined) | 0.5 (≈ 0.223 µg/mL) |  | MIC50 [1, 4]: NE
CO[C@H]1/C=C/O[C@@]2(C)Oc3c(C)c(O)c4c(O)c(c(/C=N/N5CCN(C)CC5)c(O)c4c3C2=O)NC(=O)/C(C)=C\C=C\[C@H](C)[C@H](O)[C@@H](C)[C@@H](O)[C@@H](C)[C@H](OC(C)=O)[C@@H]1C [RIFAMPIN] | 0.01 (≈ 0.00823 µg/mL) | 2.9 (≈ 2.39 µg/mL) | 
CC(C)COc1nn(-c2ccccc2)c(=O)o1 | > 50 | 17.1 (≈ 4.01 µg/mL) | 
CCCCCCCCCCCC[C@H]1CC[P@@](=O)(OC)OC(C)=C1C(=O)OC | > 100 |  | 
